Assay results published in patent US20150307938A1, “METHOD TO IDENTIFY A NOVEL CLASS OF IMMUNOLOGIC ADJUVANTS” (Lancell, L.L.C., priority 2011, published 2015).
Values joined by “and” are separate entries in the source; they are usually repeats but may differ in a detail not shown here. Equal entries are not always repeated.

Test system: skin
Experiment: Affymetrix microarray of skin, DBP-4 hr and analogs vs. untreated; gene selection by log-2 fold change, Wilcoxon, Kendall tau (Tables 8, 9)
Format: in vivo, mouse
Settings: mouse, in vivo

CCCCOC(=O)c1ccccc1C(=O)OCCCC [DBP, dibutylphthalate]
DBP LogFold-Change Versus-Untreated: Csrp1: 0.81
DBP LogFold-Change Versus-Untreated: Cxcl1: 5.43
DBP LogFold-Change Versus-Untreated: Cxcl2: 4.56
DBP LogFold-Change Versus-Untreated: Cxcl16: 1.35
DBP LogFold-Change Versus-Untreated: Cyr61: 1.59
DBP LogFold-Change Versus-Untreated: Cytip: 1.19
DBP LogFold-Change Versus-Untreated: Deptor: 0.99
DBP LogFold-Change Versus-Untreated: Dusp6: 1.81
DBP LogFold-Change Versus-Untreated: Dusp7: 1.07
DBP LogFold-Change Versus-Untreated: Efhd2: 0.82
DBP LogFold-Change Versus-Untreated: Egr1: 1.50
DBP LogFold-Change Versus-Untreated: Eif1a: 0.97
DBP LogFold-Change Versus-Untreated: Epgn: 3.82
DBP LogFold-Change Versus-Untreated: Epha2: 0.82
DBP LogFold-Change Versus-Untreated: Errfi1: 0.89
DBP LogFold-Change Versus-Untreated: F2rl1: 0.78
DBP LogFold-Change Versus-Untreated: Fam43a: 0.81
DBP LogFold-Change Versus-Untreated: Fgfbp1: 1.01
DBP LogFold-Change Versus-Untreated: Fkbp5: 1.19
DBP LogFold-Change Versus-Untreated: Fosl1: 1.95
DBP LogFold-Change Versus-Untreated: Gjb2: 1.21
DBP LogFold-Change Versus-Untreated: Gpr35: 0.91
DBP LogFold-Change Versus-Untreated: Gpr65: 1.35
DBP LogFold-Change Versus-Untreated: Gyk: 1.00
DBP LogFold-Change Versus-Untreated: Gzmb: 1.30
DBP LogFold-Change Versus-Untreated: Havcr2: 1.89
DBP LogFold-Change Versus-Untreated: Hbegf: 1.76
DBP LogFold-Change Versus-Untreated: Hdc: 2.14
DBP LogFold-Change Versus-Untreated: Icam1: 2.66
DBP LogFold-Change Versus-Untreated: Ier2: 1.02
DBP LogFold-Change Versus-Untreated: Ier3: 1.85
DBP LogFold-Change Versus-Untreated: Il1b: 2.73
DBP LogFold-Change Versus-Untreated: Il1rl1: 0.91
DBP LogFold-Change Versus-Untreated: Il4ra: 0.81
DBP LogFold-Change Versus-Untreated: Il6: 3.05
DBP LogFold-Change Versus-Untreated: Il7r: 1.15
DBP LogFold-Change Versus-Untreated: Il10ra: 0.90
DBP LogFold-Change Versus-Untreated: Irs2: 0.94
DBP LogFold-Change Versus-Untreated: Jun: 1.06
DBP LogFold-Change Versus-Untreated: Junb: 1.39
DBP LogFold-Change Versus-Untreated: Kctd11: 0.80
DBP LogFold-Change Versus-Untreated: Klrb 1b: 1.25
DBP LogFold-Change Versus-Untreated: Krt6a: 1.53
DBP LogFold-Change Versus-Untreated: Krt35: 1.06
DBP LogFold-Change Versus-Untreated: LOC100504977: 3.10
DBP LogFold-Change Versus-Untreated: Map3k6: 1.03
DBP LogFold-Change Versus-Untreated: Map3k8: 1.01
DBP LogFold-Change Versus-Untreated: Mt1: 1.34
DBP LogFold-Change Versus-Untreated: Mt2: 1.11
DBP LogFold-Change Versus-Untreated: Nfil3: 1.60
DBP LogFold-Change Versus-Untreated: Nfkb2: 0.94
DBP LogFold-Change Versus-Untreated: Nr4a1: 2.09
DBP LogFold-Change Versus-Untreated: Nr4a2: 1.39
DBP LogFold-Change Versus-Untreated: Osmr: 0.95
DBP LogFold-Change Versus-Untreated: Otud7a: 1.25
DBP LogFold-Change Versus-Untreated: Pde4b: 1.44
DBP LogFold-Change Versus-Untreated: Plaur: 1.06
DBP LogFold-Change Versus-Untreated: Plk3: 1.00
DBP LogFold-Change Versus-Untreated: Pmaip1: 1.47
DBP LogFold-Change Versus-Untreated: Pprc1: 0.78
DBP LogFold-Change Versus-Untreated: Pqlc1: 0.87
DBP LogFold-Change Versus-Untreated: Prss22: 1.61
DBP LogFold-Change Versus-Untreated: Ptges: 1.22
DBP LogFold-Change Versus-Untreated: Pvr: 0.90
DBP LogFold-Change Versus-Untreated: Pyy: 2.62
DBP LogFold-Change Versus-Untreated: Rab20: 1.52
DBP LogFold-Change Versus-Untreated: Ramp3: 1.20
DBP LogFold-Change Versus-Untreated: Rgs1: 2.12
DBP LogFold-Change Versus-Untreated: Rnf19b: 1.15
DBP LogFold-Change Versus-Untreated: Serpine1: 2.68
DBP LogFold-Change Versus-Untreated: Slc7a5: 1.52
DBP LogFold-Change Versus-Untreated: Slc10a6: 1.33
DBP LogFold-Change Versus-Untreated: Slc25a25: 1.16
DBP LogFold-Change Versus-Untreated: Slc39a8: 1.52
DBP LogFold-Change Versus-Untreated: Slc39a14: 0.84
DBP LogFold-Change Versus-Untreated: Smox: 1.30 and 1.29 and 1.28
DBP LogFold-Change Versus-Untreated: Socs2: 1.26
DBP LogFold-Change Versus-Untreated: Socs3: 1.39
DBP LogFold-Change Versus-Untreated: Sprr1a: 1.43
DBP LogFold-Change Versus-Untreated: Stc1: 1.07
DBP LogFold-Change Versus-Untreated: Stk17b: 0.89
DBP LogFold-Change Versus-Untreated: Tnfaip2: 1.94
DBP LogFold-Change Versus-Untreated: Tnfaip3: 2.10
DBP LogFold-Change Versus-Untreated: Tnfaip6: 2.30
DBP LogFold-Change Versus-Untreated: Traf1: 1.07
DBP LogFold-Change Versus-Untreated: Uap1: 1.11
DBP LogFold-Change Versus-Untreated: Zbtb16: 1.04
DBP LogFold-Change Versus-Untreated: Zfp36: 1.53
DBP LogFold-Change Versus-Untreated: Zfp593: 1.01
Dbp NM_016974_at ≧2-Fold change: No
Deptor NM_001037937_at ≧2-Fold change: No
Dlgap4 NM_001042487_at ≧2-Fold change: No
Dlgap4 NM_001042488_at ≧2-Fold change: No
Dusp6 (NM_026268_at) ≧2-Fold change: Yes
Dusp7 (NM_153459_at) ≧2-Fold change: Yes
Ear5 NM_019398_at ≧2-Fold change: No
Epgn (NM_053087_at) ≧2-Fold change: Yes
Fam134b NM_001034851_at ≧2-Fold change: No
Gcdh NM_001044744_at ≧2-Fold change: No
Gm10228 XM_001474297_at ≧2-Fold change: No
Gm10228 XM_003086004_at ≧2-Fold change: No
Gm10229 XM_003086003_at ≧2-Fold change: No
Gsdmc NM_031378_at ≧2-Fold change: No
Gzmb (NM_013542_at) ≧2-Fold change: Yes
H19 NR_001592_at ≧2-Fold change: No
Havcr2 (NM_134250_at) ≧2-Fold change: Yes
Ier2 (NM_010499_at) ≧2-Fold change: Yes
Ier3 (NM_133662_at) ≧2-Fold change: Yes
Ifi202b (NM_011940_at) ≧2-Fold change: Yes
Il1f6 (NM_019450_at) ≧2-Fold change: Yes
Il1rl1 NM_001025602_at ≧2-Fold change: No
Il6 (NM_031168_at) ≧2-Fold change: Yes
Il20 (NM_021380_at) ≧2-Fold change: Yes
Inpp5a NM_001127363_at ≧2-Fold change: No
Inpp5d NM_001110192_at ≧2-Fold change: No
Inpp5d NM_001110193_at ≧2-Fold change: No
Jdp2 (NM_030887_at) ≧2-Fold change: Yes
Jun (NM_010591_at) ≧2-Fold change: Yes
Klhdc5 NM_001081237_at ≧2-Fold change: No
Klk6 (NM_011177_at) ≧2-Fold change: Yes
Klrb1b (NM_030599_at) ≧2-Fold change: Yes
Krt25 (NM_133730_at) ≧2-Fold change: Yes
Krt27 (NM_010666_at) ≧2-Fold change: Yes
Krt33a NM_027983_at ≧2-Fold change: No
Krt34 NM_027563_at ≧2-Fold change: No
Krt35 (NM_016880_at) ≧2-Fold change: Yes
Krt71 (NM_019956_at) ≧2-Fold change: Yes
Krtap1-5 NM_027157_at ≧2-Fold change: No
Krtap3-1 NM_023511_at ≧2-Fold change: No
Krtap3-3 NM_025524_at ≧2-Fold change: No
Krtap4-2 NM_026807_at ≧2-Fold change: No
Krtap4-16 (NM_001013823_at) ≧2-Fold change: No
Krtap5-2 NM_027844_at ≧2-Fold change: No
Krtap9-3 NM_029351_at ≧2-Fold change: No
Krtap13-1 NM_183189_at ≧2-Fold change: No
Krtap16-1 NM_130870_at ≧2-Fold change: No
Krtap16-5 NM_130857_at ≧2-Fold change: No
Krtap16-7 NM_028621_at ≧2-Fold change: No
Krtap16-8 NM_130856_at ≧2-Fold change: No
Krtap16-9 NM_130876_at ≧2-Fold change: No
Krtap16-10 NM_183296_at ≧2-Fold change: No
Krtap28-13 XM_896507_at ≧2-Fold change: No
Krtap28-13 XM_919110_at ≧2-Fold change: No
LOC100044068 (XM_001473873_at) ≧2-Fold change: Yes
LOC100503254 XM_003085741_at ≧2-Fold change: No
LOC100504977 (XM_003085794_at) ≧2-Fold change: Yes
Lmod2 NM_053098_at ≧2-Fold change: No
Lyz2 NM_017372_at ≧2-Fold change: No
Maff (NM_010755_at) ≧2-Fold change: Yes
Map3k6 (NM_016693_at) ≧2-Fold change: Yes
Mcoln2 (NM_026656_at) ≧2-Fold change: Yes
Mfhas1 NM_001081279_at ≧2-Fold change: No
Mfsd4 NM_001114662_at ≧2-Fold change: No
Mia1 NM_019394_at ≧2-Fold change: No
Mrpl44 NM_001081210_at ≧2-Fold change: No
Ms4a6d NM_026835_at ≧2-Fold change: No
Mt1 (NM_013602_at) ≧2-Fold change: Yes
Mylpf NM_016754_at ≧2-Fold change: No
Myoz2 NM_021503_at ≧2-Fold change: No
NA (AFFX-18SRNAMur/X00686_3_at) ≧2-Fold change: No
NA (AFFX-18SRNAMur/X00686_5_at) ≧2-Fold change: No
NA (AFFX-18SRNAMur/X00686_M_at) ≧2-Fold change: No
NA (AFFX-BioB-3_at) ≧2-Fold change: No
NA (AFFX-BioB-5_at) ≧2-Fold change: No
NA (AFFX-BioB-M_at) ≧2-Fold change: No
NA (AFFX-BioC-3_at) ≧2-Fold change: No
NA (AFFX-BioC-5_at) ≧2-Fold change: No
NA (AFFX-BioDn-3_at) ≧2-Fold change: No
NA (AFFX-BioDn-5_at) ≧2-Fold change: No
NA (AFFX-ThrX-5_at) ≧2-Fold change: No
Ncbp1 NM_001033201_at ≧2-Fold change: No
Nfil3 (NM_017373_at) ≧2-Fold change: Yes
Nfkbia (NM_010907_at) ≧2-Fold change: Yes
Nfkbiz (NM_030612_at) ≧2-Fold change: Yes
Nolc1 NM_001039351_at ≧2-Fold change: No
Nolc1 NM_001039352_at ≧2-Fold change: No
Nolc1 NM_001039353_at ≧2-Fold change: No
Nr4a2 (NM_013613_at) ≧2-Fold change: Yes
